According to patent US20210205638A1, “PARATHYROID HORMONE AND REGENERATION OF DEGENERATIVE DISCS DISEASE” (THE JOHNS HOPKINS UNIVERSITY, priority 2017, published 2021):

Legend:
[1] = test system: NP cells; assay: Western blot of pCREB in NP cells of IFT88-/- or IFT88+/+ mice; assay type: cell-based, mouse
Description: Green fluorescent protein (GFP) labeled NP cells of notochordal origin were isolated from 15-day old Noto^Cre/+::ROSA26-lacZ^flox/flox male mice as previously described. The NP cells from 15-day old PTH1R^+/+ and PTH1R^−/−, IFT88^+/+ and IFT88^−/− male mice. Briefly, the cells were isolated from the NP region of IVDs in the spinal column from mid thoracic to lower lumbar region and digested initially with TrypLE Express (Gibco) for 30 minutes on shaker, followed by 0.25 mg/ml Collagense-P (Roche) for another […] at 37° C. The digested cells were washed twice with PBS, and cultured in α-MEM (Gibco) supplemented with 10% fetal calf serum (Atlanta Biologicals), and 1% penicillin—streptomycin (Mediatech) to 80-90% confluence at 37° C., 5% CO2 and 5% O2.
Western blot analyses were conducted on the protein lysates from in vitro cultured NP cells or NP tissues from mice at specific time points after PTH (1-34) treatment and human at different ages with lumbar disc degeneration. The protein extract was centrifuged, the concentration of supernatant evaluated by DC protein assay (Bio-Rad Laboratories), and then separated by SDS-PAGE and blotted on a polyvinylidene fluoride membrane (Bio-Rad Laboratories). Following incubation in specific antibodies, we detected proteins using an enhanced chemiluminescence kit (Amersham Biosciences). […]

[2] = test system: NP cells; assay: iPTH in PTH1R KO and wild-type mice: qRT-PCR of CCN2 and ACAN; assay type: in vivo, mouse
Description: The 11 month-old PTH1R^+/+ and PTH1R^−/− male mice were randomized into four groups: PTH1R^+/++PTH (1-34), PTH1R^+/++Vehicle, PTH1R^−/−+PTH (1-34) and PTH1R^−/−+Vehicle groups (n=8 per group). The 11 month-olds IFT88^+/+ and IFT88^−/− male mice were randomized into four groups: IFT88^+/++PTH (1-34), IFT88^+/++Vehicle, IFT88^−/−+PTH (1-34) and IFT88^−/−+Vehicle groups (n=8 per group). Mice were subcutaneously injected with either PTH (1-34) or vehicle (1 mM acetic acid in phosphate buffered saline (PBS) with equivalent volume of PTH) daily, 5 days per week, and all mice were sacrificed 4 weeks after treatment with PTH (1-34)/vehicle.
After protein extraction, specimen from the same group of mice were prepared for RNA extraction using TRIzol reagent (Invitogen) according to the manufacturer's instruction. The purity of RNA was tested by measuring the absorbance at 260 and 280 nm. For qRT-PCR, two micrograms of RNA was reverse transcribed into cDNA using the SuperScript firststrand synthesis system (Invitrogen) and analyzed with SYBR Green-Master Mix (Qiagen) in the thermal cycler with two sets of primers specific for each target gene. Relative expression was calculated for each gene by the 2^−ΔΔCT method, with GAPDH for normalization.

[3] = test system: TGF-β; assay: ELISA of total and active TGF-β in NP tissue of aged mice; assay type: in vivo, mouse; settings: 18-month-old mice
Description: For cAMP assays, confluent cells were grown in 35-mm six-well plates starved overnight by incubation in serum-free α-MEM at 37° C. The cells were then treated with 100 nM human of human PTH (1-34; Bachem Calif., Inc.) for 1 h. Cellular cAMP was extracted and the concentration measured with the Biotrak enzyme immunoassay system (GE Healthare, Inc., Princeton, HJ). We determined the concentration of total and active TGF-β in the NP tissue using the ELISA Development Kit (R&D Systems) according to the manufacturer's instructions.

[4] = test system: 18-month-old mice; assay: iPTH in aged mice: PPCT of IVD and L4 trabecular bone; assay type: in vivo, mouse; settings: for IVD morphology: aged mice
Description: For the dosage screening experiments, 17 month old male C57BL/6J WT mice were assigned into four groups treated with different doses of PTH or vehicle; 20 μg/kg/d, 40 μg/kg/d and 80 μg/kg/d of human PTH (1-34) (Bachem Calif., Inc. King of Prussia, Pa., USA.) or vehicle groups. We chose the optimal dosage of PTH (1-34) for the rest of the experiment.
Propagation phase contrast micro-tomography (PPCT) based on the Synchrotron radiation scanning was performed at the BL13W1 biomedical beamline in the Shanghai Synchrotron Radiation Facility (SSRF) in China (FIG. 7A). To obtain high X-ray attenuation contrast images, the monochromatic X-ray energy was adjusted to 15 keV, the scanner was set at a voltage of 15 keV, exposure time set to 2.5 s, and the sample-to-detector distance (SDD) adjusted to 30 cm and a resolution of 3.7 μm per pixel. The images were reconstructed and analyzed using the GPU-CT-Reconstruction software (applied by the BL13W1 experimental station) and the VG Studio Max 3D software (version 2.1, Volume Graphics GmbH, Germany) respectively. The region of interest was defined to cover the whole L3-L4 compartment. The 3D quantitative analysis of IVDs was performed with the commercially available Image Pro Analyzer 3D software (Version 7.0, Media Cybernetics, Inc., USA). The 3D structural parameters analyzed for the mean height and volume and thickness distribution of IVDs. The trabecular bone of L4 was segmented from the bone marrow and analyzed to determine the trabecular bone volume fraction (BV/TV), trabecular thickness (Tb. Th), trabecular number (Tb. N) and trabecular separation (Tb. Sp).

[5] = 18-month-old mice relative to vehicle, 40 μg/kg
[6] = 18-month-old mice, L4 trabecular bone

SMILES: CC[C@H](C)[C@H](NC(=O)[C@H](CCC(=O)O)NC(=O)[C@H](CO)NC(=O)[C@@H](NC(=O)[C@@H](N)CO)C(C)C)C(=O)N[C@@H](CCC(N)=O)C(=O)N[C@@H](CC(C)C)C(=O)N[C@@H](CCSC)C(=O)N[C@@H](Cc1cnc[nH]1)C(=O)N[C@@H](CC(N)=O)C(=O)N[C@@H](CC(C)C)C(=O)NCC(=O)N[C@@H](CCCCN)C(=O)N[C@@H](Cc1cnc[nH]1)C(=O)N[C@@H](CC(C)C)C(=O)N[C@@H](CC(N)=O)C(=O)N[C@@H](CO)C(=O)N[C@@H](CCSC)C(=O)N[C@@H](CCC(=O)O)C(=O)N[C@@H](CCCN=C(N)N)C(=O)N[C@H](C(=O)N[C@@H](CCC(=O)O)C(=O)N[C@@H](Cc1c[nH]c2ccccc12)C(=O)N[C@@H](CC(C)C)C(=O)N[C@@H](CCCN=C(N)N)C(=O)N[C@@H](CCCCN)C(=O)N[C@@H](CCCCN)C(=O)N[C@@H](CC(C)C)C(=O)N[C@@H](CCC(N)=O)C(=O)N[C@@H](CC(=O)O)C(=O)N[C@H](C(=O)N[C@@H](Cc1cnc[nH]1)C(=O)N[C@@H](CC(N)=O)C(=O)N[C@@H](Cc1ccccc1)C(=O)O)C(C)C)C(C)C [PTH (1-34), teriparatide]
- levels of CREB phosphorylation by PTH ([1]; IFT88-/- NP cells (disruption of primary cilia)): significantly reduced
- phosphorylation of CREB (Western blot) ([1]; NP cells of wild-type mice): significantly stimulated
- mRNA expression of ACAN ([2]; NP cells of wild-type mice): significantly increased
- mRNA expression of CCN2 ([2]; NP cells of wild-type mice): significantly increased
- PTH increase of mRNA expression of ACAN ([2]; PTH1R KO mice): blunted
- PTH increase of mRNA expression of CCN2 ([2]; PTH1R KO mice): blunted
- level of active TGF-β in IVDs [3]: increased
- total TGF-β level [3]: not changed
- IVD height [4, 5]: increased
- IVD volume [4, 5]: increased
- bone volume (BV/TV) [4, 6]: increase
- connectivity (Tb. Con) [4, 6]: increase
- IVD thickness in 3D images in five different areas ([4]; 18-month-old mice, especially the central area of IVD): significant increase
- IVD morphology ([4]; 40 μg/kg daily for eight weeks): significantly improved
- IVD morphology ([4]; 80 μg/kg daily for eight weeks): significantly improved
